The results in this text go back to patent US20090044291A1, “DROUGHT-RESISTANT PLANTS AND METHOD FOR PRODUCING THE PLANTS” (D-Helix, priority 2006, published 2009).

Entries after “also recorded” stand apart in the source; their conditions may differ.

One may read the Kd as a measure of binding affinity in units of concentration. A high value points to a looser complex.

In test [1] the target is T1, ABAR (Arabidopsis thaliana, UniProt Q9FNB0).
T1 construct: 6xHis; made in house; host or cells: transgenic yeast (Pichia methanolica), cell-free protein extracts
Nature of the test: Preliminary ABA binding experiment with transgenic yeast extracts expressing ABAR cDNA.

Test [2] deals with C-terminal portion of the broad bean ABAR or CHLH. Nature of the test: ABA binding to yeast-expressed C-terminal fragment of broad bean ABAR. The note with it: data not shown. Details: species or system Vicia faba. The text has this:
So we designated it ABAR (for putative abscisic acid receptor). On the basis of the sequencing information, we isolated from broad bean leaves a complementary DNA fragment encoding the carboxy-terminal half of about 770 amino acids of the putative H subunit (CHLH) of the magnesium-protoporphyrin-IX chelatase (Mg-chelatase). CHLH has been reported to have multiple functions in plant cells. In addition to its enzymatic functions as a subunit of the Mg-chelatase in producing photosynthetic apparatus (Walker, C. J. et al., Biochem. J. 327:321-333 (1997)), CHLH has a key function in mediating plastid-to-nucleus signaling (Mochizuki, N. et al., Proc. Natl. Acad. Sci. USA 98:2053-2058 (2001); Surpin, M., et al., Plant Cell S327-S338 (2002); Strand, A., et al., Nature 421:79-83 (2003); Nott, A. et al., Annu. Rev. Plant Biol. 57:730-759 (2006)). […] The information from Vicia faba led us to analyse the functions of ABAR in ABA signalling in Arabidopsis thaliana.

In test [3] the test system is gl1 seedlings. Nature of the test: Effects of ABA in vivo on chlorophyll, porphyrins and ABAR/CHLH protein. More on the design: species or system Arabidopsis thaliana. The note with it: exogenous ABA treatment, 10 d. The procedure: The contents of chlorophyll, protoporphyrin IX and Mg-protoporphyrin IX were assayed essentially by the previously described procedures (Mochizuki, N. et al., Proc. Natl. Acad. Sci. USA 98:2053-2058 (2001)).
For the effects of ABA in vivo, the seeds of the ecotype gl1 were germinated after stratification on common MS medium and 48 h later transferred to MS medium supplemented with different concentrations of ABA. 10 d later, the contents of chlorophyll and porphyrins including of protoporphyrin IX and Mg-protoporphyrin IX were measured. At the same time total proteins were extracted from leaves for testing the amounts of ABAR/CHLH protein by immunoblotting.

Test [4] deals with T2, Mg-chelatase (Arabidopsis thaliana, UniProt Q9FNB0).
T2 construct: isolation of intact chloroplasts from 3-week-old gl1 plants; from tissue; host or cells: intact chloroplasts from 3-week-old Arabidopsis gl1 plants
T2 sequence (Q9FNB0 50-1381): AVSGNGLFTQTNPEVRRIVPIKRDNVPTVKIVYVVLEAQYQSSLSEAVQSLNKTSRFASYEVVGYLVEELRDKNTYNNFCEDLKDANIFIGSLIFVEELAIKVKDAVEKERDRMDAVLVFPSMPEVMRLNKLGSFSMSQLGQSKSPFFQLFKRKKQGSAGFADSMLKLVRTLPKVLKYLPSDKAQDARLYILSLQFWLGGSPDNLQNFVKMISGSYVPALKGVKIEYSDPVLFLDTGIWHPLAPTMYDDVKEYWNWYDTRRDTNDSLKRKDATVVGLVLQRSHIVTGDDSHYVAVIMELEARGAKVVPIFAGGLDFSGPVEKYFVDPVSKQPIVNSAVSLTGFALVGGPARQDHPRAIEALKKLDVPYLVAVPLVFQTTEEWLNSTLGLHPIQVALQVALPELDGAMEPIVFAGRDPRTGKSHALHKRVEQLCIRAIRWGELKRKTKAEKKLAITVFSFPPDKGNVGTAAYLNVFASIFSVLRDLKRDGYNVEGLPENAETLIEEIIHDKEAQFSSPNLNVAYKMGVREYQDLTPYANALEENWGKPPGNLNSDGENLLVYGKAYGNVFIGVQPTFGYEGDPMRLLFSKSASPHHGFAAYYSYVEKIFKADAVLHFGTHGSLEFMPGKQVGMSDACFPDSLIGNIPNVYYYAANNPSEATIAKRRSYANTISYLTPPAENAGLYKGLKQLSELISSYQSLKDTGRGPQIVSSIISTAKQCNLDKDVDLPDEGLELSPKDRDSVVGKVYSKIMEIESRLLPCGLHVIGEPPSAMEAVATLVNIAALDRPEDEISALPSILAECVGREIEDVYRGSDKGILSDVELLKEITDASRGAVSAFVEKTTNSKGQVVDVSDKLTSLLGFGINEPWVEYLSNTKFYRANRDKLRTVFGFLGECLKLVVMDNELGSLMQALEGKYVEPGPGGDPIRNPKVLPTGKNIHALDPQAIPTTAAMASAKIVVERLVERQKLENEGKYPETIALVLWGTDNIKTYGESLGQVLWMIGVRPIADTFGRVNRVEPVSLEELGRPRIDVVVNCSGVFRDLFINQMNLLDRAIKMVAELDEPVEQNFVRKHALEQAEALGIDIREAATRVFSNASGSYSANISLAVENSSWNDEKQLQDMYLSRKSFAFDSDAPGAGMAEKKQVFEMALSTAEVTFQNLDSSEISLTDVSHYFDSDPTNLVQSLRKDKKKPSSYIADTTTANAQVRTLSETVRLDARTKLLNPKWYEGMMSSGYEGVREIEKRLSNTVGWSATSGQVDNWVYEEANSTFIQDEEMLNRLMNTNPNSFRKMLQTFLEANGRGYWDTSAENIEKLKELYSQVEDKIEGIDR
As to the kind of experiment: Effects of ABA on Mg-chelatase activity in isolated chloroplasts. It is filed as biochemical. The note with it: chloroplasts pre-incubated 20 min with (±)-ABA. Here is the method: For the effects of ABA on Mg-chelatase activity in vitro, isolation of intact chloroplasts from 3-week-old gl1 plants and assays of both […] and Mg-chelatase activity were done essentially according to the method of Walker and Weinstein (Walker, C. J. et al., Plant Physiol. 95:1189-1196 (1991); Walker, C. J. et al., Proc. Natl. Acad. Sci. USA 88:5789-5793 (1991)). Briefly, the purified chloroplasts with high degree of intactness were pre-incubated for 20 min in the chloroplast isolation buffer supplemented with different concentrations of (±)-ABA. For assaying Mg-chelatase activity, reactions were started by addition of the ABA-pretreated plastids and terminated by addition of ice-cold acetone. All the manipulations were performed under dim light to prevent porphyrin-mediated photooxidative damage. After centrifugation, the green supernatant was reserved and diluted with 4 ml of 75% (v/v) acetone. The fluorescence of the product was read directly in this acetone extract.

Take `CC1=CC(=O)CC(C)(C)C1(O)/C=C/C(C)=C\C(=O)O` (stereo not shown) [ABA, abscisic acid]: in test [1], binding was characterised by a dissociation constant (Kd) of 36 nM. Further, the ABA binding entry in test [2] was “binds ABA specifically”. In addition, in test [3], the MgProto contents result is reported as “enhances”, the Proto contents result is “significantly decreased; also recorded: decreases” and the chlorophyll contents entry is listed as “significantly decreased; also recorded: decreases”. In test [3] (immunoblotting), the “ABAR expression (protein levels)” value is “stimulated; also recorded: enhances”. The Mg-chelatase activity result in test [4] is “stimulated; also recorded: enhances”.
